Assay results published in PubChem BioAssay AID1259407 (Chemical Carcinogenesis Research Information System (CCRIS), 2018).
Calls of active or inactive are those of the source. No rule for the calls is given here.

System: CCRIS mutagenicity, Ames/micronucleus/aberration tests
Experiment: CCRIS mutagenicity studies
[1] = Test System: AMES SALMONELLA TYPHIMURIUM, Strain/Indicator: TA100, Metabolic Activation: NONE, Method: PREINCUBATION
[2] = Test System: AMES SALMONELLA TYPHIMURIUM, Strain/Indicator: TA98, Metabolic Activation: NONE, Method: STANDARD PLATE
[3] = Test System: AMES SALMONELLA TYPHIMURIUM, Strain/Indicator: TA100, Metabolic Activation: NONE, Method: STANDARD PLATE

CC(=O)Nc1ccc(Cc2ccc(N)c(Cl)c2)cc1Cl
mutagenic call [1]: inactive; negative | mutagenic call (Test System: AMES SALMONELLA TYPHIMURIUM, Strain/Indicator: TA100, Metabolic Activation: RAT, LIVER, S-9, AROCLOR 1254 (50, 100 OR 200 µL), Method: PREINCUBATION): active; positive

C=CCNC1=C2C[C@@H](C)C[C@H](OC)[C@H](O)[C@@H](C)/C=C(\C)[C@H](OC(N)=O)[C@@H](OC)/C=C\C=C(/C)C(=O)NC(=CC1=O)C2=O
mutagenic call (Test System: Mouse lymphoma, Strain/Indicator: L5178Y (tk+/tk-), Metabolic Activation: None, Method: Suspension/plate): active; positive | mutagenic call (Test System: Mouse lymphoma, Strain/Indicator: L5178Y (tk+/tk-), Metabolic Activation: Rat, Liver, S-9, Aroclor 1254, Method: Suspension/plate): inactive; negative

CCCCc1oc2ccccc2c1C(=O)c1cc(I)c(OCCN(CC)CC)c(I)c1
mutagenic call (End Point: In vivo chromosomal aberrations, Test System: Bone marrow cells, Species: Rat, Strain/Sex: SHR (spontaneously hypertensive)/Female, Route: Oral): inactive; negative | mutagenic call (End Point: In vivo chromosomal aberrations, Test System: Bone marrow cells, Species: Rat, Strain/Sex: Wistar-Kyoto (WKY)/Female, Route: Oral): active; positive

O=[N+]([O-])c1ccc(/C=C/c2ccc(Cl)cc2)cc1
mutagenic call (Test System: AMES SALMONELLA TYPHIMURIUM, Strain/Indicator: TA98 (NR), Metabolic Activation: NONE, Method: STANDARD PLATE): active; positive | mutagenic call (Test System: AMES SALMONELLA TYPHIMURIUM, Strain/Indicator: TA98 (NR), Metabolic Activation: S-9, Method: STANDARD PLATE): active; positive | mutagenic call [2]: active; positive | mutagenic call (Test System: AMES SALMONELLA TYPHIMURIUM, Strain/Indicator: TA98, Metabolic Activation: S-9, Method: STANDARD PLATE): active; positive | mutagenic call (Test System: AMES SALMONELLA TYPHIMURIUM, Strain/Indicator: TA100 (NR), Metabolic Activation: NONE, Method: STANDARD PLATE): inactive; negative | mutagenic call (Test System: AMES SALMONELLA TYPHIMURIUM, Strain/Indicator: TA100 (NR), Metabolic Activation: S-9, Method: STANDARD PLATE): inactive; negative | mutagenic call [3]: inactive; negative | mutagenic call (Test System: AMES SALMONELLA TYPHIMURIUM, Strain/Indicator: TA100, Metabolic Activation: S-9, Method: STANDARD PLATE): active; positive

CCON(OC(C)=O)C(=O)c1ccccc1
mutagenic call [2]: active; positive | mutagenic call [3]: active; positive | mutagenic call (Test System: AMES SALMONELLA TYPHIMURIUM, Strain/Indicator: TA100, Metabolic Activation: RAT, S-9, AROCLOR, Method: STANDARD PLATE): active; positive

CNC(=O)CN(CCN(CCN(CC(=O)O)CC(=O)NC)CC(=O)O)CC(=O)O
mutagenic call (Test System: AMES SALMONELLA TYPHIMURIUM, Strain/Indicator: TA98, Metabolic Activation: NONE): inactive; negative | mutagenic call (Test System: AMES SALMONELLA TYPHIMURIUM, Strain/Indicator: TA98, Metabolic Activation: RAT, LIVER, S-9, AROCLOR 1254): inactive; negative | mutagenic call (Test System: AMES SALMONELLA TYPHIMURIUM, Strain/Indicator: TA100, Metabolic Activation: NONE): inactive; negative | mutagenic call (Test System: AMES SALMONELLA TYPHIMURIUM, Strain/Indicator: TA100, Metabolic Activation: RAT, LIVER, S-9, AROCLOR 1254): inactive; negative | mutagenic call (Test System: AMES SALMONELLA TYPHIMURIUM, Strain/Indicator: TA1535, Metabolic Activation: NONE): inactive; negative | mutagenic call (Test System: AMES SALMONELLA TYPHIMURIUM, Strain/Indicator: TA1535, Metabolic Activation: RAT, LIVER, S-9, AROCLOR 1254): inactive; negative | mutagenic call (Test System: AMES SALMONELLA TYPHIMURIUM, Strain/Indicator: TA1537, Metabolic Activation: NONE): inactive; negative | mutagenic call (Test System: AMES SALMONELLA TYPHIMURIUM, Strain/Indicator: TA1537, Metabolic Activation: RAT, LIVER, S-9, AROCLOR 1254): inactive; negative | mutagenic call (Test System: CHINESE HAMSTER OVARY, Strain/Indicator: CHO-K1-BH4 (HGPRT)/6-THIOGUANINE, Metabolic Activation: NONE): inactive; negative | mutagenic call (Test System: CHINESE HAMSTER OVARY, Strain/Indicator: CHO-K1-BH4 (HGPRT)/6-THIOGUANINE, Metabolic Activation: RAT, LIVER, S-9, AROCLOR 1254): inactive; negative | mutagenic call (Test System: E.COLI, Strain/Indicator: WP2 UVRA, Metabolic Activation: NONE): inactive; negative | mutagenic call (Test System: E.COLI, Strain/Indicator: WP2 UVRA, Metabolic Activation: RAT, LIVER, S-9, AROCLOR 1254): inactive; negative

N#C/C(=C/C=C/c1ccccc1)c1ccccc1Cl
mutagenic call [3]: active; positive

CC1=C2C(=CO[C@H](C)[C@H]2C)C(=O)C(C(=O)O)=C1O
mutagenic call (End Point: In vivo chromosomal aberrations, Test System: Bone marrow cells, Species: Mouse, Strain/Sex: Balb/C / Male, Route: Intraperitoneal): active; positive (structural changes) | mutagenic call (Test System: AMES SALMONELLA TYPHIMURIUM, Strain/Indicator: TA97, Metabolic Activation: NONE, Method: STANDARD PLATE): inactive; negative | mutagenic call (Test System: AMES SALMONELLA TYPHIMURIUM, Strain/Indicator: TA97, Metabolic Activation: RAT LIVER S-9, AROCLOR 1254, Method: STANDARD PLATE): inactive; negative | mutagenic call [2]: inactive; negative | mutagenic call (Test System: AMES SALMONELLA TYPHIMURIUM, Strain/Indicator: TA98, Metabolic Activation: RAT LIVER S-9, AROCLOR 1254, Method: STANDARD PLATE): inactive; negative | mutagenic call [1]: inactive; negative | mutagenic call [3]: inactive; negative | mutagenic call (Test System: AMES SALMONELLA TYPHIMURIUM, Strain/Indicator: TA100, Metabolic Activation: RAT LIVER S-9, AROCLOR 1254, Method: STANDARD PLATE): inactive; negative | mutagenic call (Test System: AMES SALMONELLA TYPHIMURIUM, Strain/Indicator: TA100, Metabolic Activation: RAT, LIVER, S-9, PHENOBARBITAL, Method: PREINCUBATION): inactive; negative | mutagenic call (Test System: AMES SALMONELLA TYPHIMURIUM, Strain/Indicator: TA102, Metabolic Activation: NONE, Method: STANDARD PLATE): inactive; negative | mutagenic call (Test System: AMES SALMONELLA TYPHIMURIUM, Strain/Indicator: TA102, Metabolic Activation: RAT, LIVER, S-9, AROCLOR 1254, Method: STANDARD PLATE): inactive; negative | mutagenic call (Test System: AMES SALMONELLA TYPHIMURIUM, Strain/Indicator: TA1535, Metabolic Activation: NONE, Method: STANDARD PLATE): inactive; negative | mutagenic call (Test System: AMES SALMONELLA TYPHIMURIUM, Strain/Indicator: TA1535, Metabolic Activation: RAT LIVER S-9, AROCLOR 1254, Method: STANDARD PLATE): inactive; negative | mutagenic call (Test System: AMES SALMONELLA TYPHIMURIUM, Strain/Indicator: TA1537, Metabolic Activation: NONE, Method: STANDARD PLATE): inactive; negative | mutagenic call (Test System: AMES SALMONELLA TYPHIMURIUM, Strain/Indicator: TA1537, Metabolic Activation: RAT LIVER S-9, AROCLOR 1254, Method: STANDARD PLATE): inactive; negative

O[C@H]1c2cccc3ccc4cccc(c4c23)[C@@H]1O
mutagenic call (Test System: AMES SALMONELLA TYPHIMURIUM, Strain/Indicator: TA98, Metabolic Activation: NONE, Method: PREINCUBATION): inactive; negative | mutagenic call (Test System: AMES SALMONELLA TYPHIMURIUM, Strain/Indicator: TA98, Metabolic Activation: RAT, LIVER, S-9, AROCLOR 1254, Method: PREINCUBATION): inactive; negative | mutagenic call [1]: inactive; negative | mutagenic call (Test System: AMES SALMONELLA TYPHIMURIUM, Strain/Indicator: TA100, Metabolic Activation: RAT, LIVER, S-9, AROCLOR 1254, Method: PREINCUBATION): inactive; negative
